This note sets out measurements from patent US8097440B1, “Engineered microorganisms capable of producing target compounds under anaerobic conditions” (Gevo, Inc., priority 2008, dated 2012).

Assay [1] deals with T1, E. coli KARI Ec_IlvC variant Ec_IlvC^B8A71S-his6 (Q110V, S78D, A71S), SEQ ID NO: 29 (Escherichia coli, UniProt P05793, A71S/Q110V/S78D).
T1 sequence (P05793 with tags, fused parts or gaps A71S/S78D/Q110V): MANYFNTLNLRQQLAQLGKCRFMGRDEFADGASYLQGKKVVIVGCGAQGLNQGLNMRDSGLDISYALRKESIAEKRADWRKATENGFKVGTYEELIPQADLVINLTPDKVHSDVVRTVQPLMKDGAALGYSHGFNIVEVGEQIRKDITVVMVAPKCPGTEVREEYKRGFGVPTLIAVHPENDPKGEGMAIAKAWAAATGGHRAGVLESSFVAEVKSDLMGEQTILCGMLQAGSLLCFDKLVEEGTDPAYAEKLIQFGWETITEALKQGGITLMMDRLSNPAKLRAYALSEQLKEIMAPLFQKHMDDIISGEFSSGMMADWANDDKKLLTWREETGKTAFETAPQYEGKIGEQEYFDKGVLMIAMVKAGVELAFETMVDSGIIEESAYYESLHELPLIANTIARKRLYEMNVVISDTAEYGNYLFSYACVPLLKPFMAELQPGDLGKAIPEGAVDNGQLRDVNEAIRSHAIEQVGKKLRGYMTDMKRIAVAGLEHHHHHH
Kind of assay: KARI cuvette assay, purified Ec_IlvC^B8A71S-his6. In kind it is biochemical. How it is done:
(§1) KARI cuvette assay: KARI activity was assayed kinetically by monitoring the decrease in NAD(P)H concentration by measuring the absorbance at 340 nm. A reaction buffer was prepared containing 250 mM potassium phosphate pH 7, 1 mM DTT and 10 mM MgCl2. Cell pellets were resuspended (0.25 g wet weight/mL buffer) in 250 mM potassium phosphate (KPi) buffer containing 1 mM DTT and 10 mM MgCl2. The resuspended cells were lysed by sonication for 1 min with a 50% duty cycle and pelleted at 11000×g and 4° C. for 15 min. A reaction mixture consisting of 910 μl reaction buffer, 50 μl acetolactate, and 20 μl lysate was prepared in a cuvette. The reaction was initiated by addition of 20 μL of 10 mM NAD(P)H. A substrate free control was conducted using reaction buffer without the addition of acetolactate.
Purification of KARI: Cell pellets used for purification were resuspended in purification buffer A (20 mM Tris, 20 mM imidazol, 100 mM NaCl, 10 mM MgCl2, pH 7.4). KARI was purified by IMAC (Immobilized metal affinity chromatography) over a 1 ml Histrap High Performance (histrap HP) column pre-charged with Nickel (GE Healthcare) using an Akta FPLC system (GE Healthcare). […]

Assay [2] addresses T2, Escherichia coli KARI (ketol-acid reductoisomerase) Ec_IlvC^his6, wild type IlvC (SEQ ID NO: 13) with his6-tag, SEQ ID NO: 15 (Escherichia coli, UniProt P05793).
T2 sequence (P05793 with tags, fused parts or gaps): T1 sequence (P05793 with tags, fused parts or gaps A71S/S78D/Q110V) with S71A, D78S, V110Q
Kind of assay: KARI cuvette assay, purified Ec_IlvC^his6 (parent / wild type). In kind it is biochemical, E. coli. The conditions noted are these: relative to Ec_IlvC^his6 with NADPH. How it is done:
as §1, with “The reaction was initiated by addition of 20 μL of 10 mM NAD(P)H. A substrate free control was conducted using reaction buffer without the addition of acetolactate.” left out
Only 20% of the enzymes of the recombination library were active on NADH. After screening 1,000 clones using the NADH depletion assay at 340 nm, 26 KARI variants were selected for a rescreen by the high-throughput assay described in Example 14 and eight thereof were expressed in 25 ml LBamp medium in shake flasks according to the protocol for cell growth and protein expression in shake flasks as described in Example 14, purified according to the protocol for purification of KARI enzymes as described in Example 14, and NAD(P)H depletion at 340 nm was measured again. […] The KM values of variants Ec_llvC^2H10-his6 and Ec_llvC^6E6-his6 were measured and the catalytic efficiencies were calculated.

Numbering of substitutions follows the chain as printed.

What is called kcat/KM is the second-order rate constant that governs catalysis at low substrate concentration. In the case of `NC(=O)C1=CN([C@@H]2O[C@H](COP(=O)(O)OP(=O)(O)OC[C@H]3O[C@@H](n4cnc5c(N)ncnc54)[C@H](O)[C@@H]3O)[C@@H](O)[C@H]2O)C=CC1` [NADH, nicotinamide adenine dinucleotide], in assay [1] (purified, acetolactate as substrate), the kcat/KM was determined as 38330 M⁻¹ s⁻¹. Besides, the “(kcat/KM with NADH)/(kcat/KM of Ec_IlvC^his6 with NADPH)” value in assay [1] (relative to Ec_IlvC^his6 with NADPH) came out at 44%; in assay [2], 1%.
